According to patent US9139557B2, “Carboxamide compounds and their use as calpain inhibitors” (Abbott GmbH & Co. KG, priority 2006, dated 2015):

What was measured:
Format in all cases: biochemical
cathepsin K = molecular target: T1, cathepsin K (Homo sapiens, UniProt P43235); assay: Cathepsin K enzyme inhibition in vitro (kinetic fluorescence assay); details: Ki(cathepsin K)/Ki(calpain) ratio
T1 construct: purchased Calbiochem 342001; host or cells: E. coli
T1 sequence (P43235 115-329): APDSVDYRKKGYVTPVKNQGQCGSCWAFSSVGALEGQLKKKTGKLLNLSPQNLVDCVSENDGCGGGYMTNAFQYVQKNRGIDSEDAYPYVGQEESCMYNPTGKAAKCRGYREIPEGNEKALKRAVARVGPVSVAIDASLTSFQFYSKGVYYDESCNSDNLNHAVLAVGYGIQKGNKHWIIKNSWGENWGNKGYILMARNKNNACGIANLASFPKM

cathepsin S = molecular target: T2, cathepsin S (Homo sapiens, UniProt P25774); assay: Cathepsin S enzyme inhibition in vitro (kinetic fluorescence assay); details: Ki(cathepsin S)/Ki(calpain) ratio
T2 construct: purchased Calbiochem 219343; host or cells: E. coli
T2 sequence (P25774 115-331): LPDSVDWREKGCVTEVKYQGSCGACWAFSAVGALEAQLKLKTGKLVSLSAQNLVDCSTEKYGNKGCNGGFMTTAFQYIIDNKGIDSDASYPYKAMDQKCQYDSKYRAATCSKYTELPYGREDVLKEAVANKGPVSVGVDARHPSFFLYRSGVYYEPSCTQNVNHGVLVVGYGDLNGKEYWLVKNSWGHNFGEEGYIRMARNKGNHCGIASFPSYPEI
How it was run: (§1)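 Kinetic fluorescence (ex 390/em 460 nm), RT. Calpain-I: 20 nM erythrocyte-derived, 100 μM Suc-Leu-Tyr-AMC, imidazole/CaCl2, pH 7.3. Cathepsins, pH 6.0 MES/EDTA/cysteine: B 0.25 nM liver, 100 μM Z-Phe-Arg-AMC; L 1 nM liver, 2 μM Z-Phe-Arg-AMC; S 0.5 nM recombinant, 20 μM Z-Val-Val-Arg-AMC. Cheng-Prusoff Ki, mean of 2–4 curves.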

cathepsin B = molecular target: T3, cathepsin B (Homo sapiens, UniProt P07858); assay: Cathepsin B enzyme inhibition in vitro (kinetic fluorescence assay); details: Ki(cathepsin B)/Ki(calpain) ratio
T3 construct: cathepsin B—isolated from human liver; purchased Calbiochem 219362; host or cells: human liver (tissue isolate)
How it was run: as §1

cathepsin L = molecular target: T4, cathepsin L (Homo sapiens, UniProt P07711); assay: Cathepsin L enzyme inhibition in vitro (kinetic fluorescence assay); details: Ki(cathepsin L)/Ki(calpain) ratio
T4 construct: cathepsin L—isolated from human liver; purchased Calbiochem 219402; host or cells: human liver (tissue isolate)
T4 sequence (P07711 114-333): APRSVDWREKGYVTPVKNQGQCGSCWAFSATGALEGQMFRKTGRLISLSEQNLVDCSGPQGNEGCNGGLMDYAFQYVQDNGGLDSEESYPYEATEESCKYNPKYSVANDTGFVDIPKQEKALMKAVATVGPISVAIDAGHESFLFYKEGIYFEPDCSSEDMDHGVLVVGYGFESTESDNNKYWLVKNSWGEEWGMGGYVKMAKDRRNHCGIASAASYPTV
How it was run: as §1

Compound: NC(=O)C(=O)C(Cc1ccccc1)NC(=O)c1cccnc1-n1ccc(-c2cccc(Cl)c2Cl)n1 (centres unmarked) [Example 115, N-[3-Amino-2,3-dioxo-1-(phenylmethyl)propyl]-2-[3-(2,3-dichlorophenyl)-1H-pyrazol-1-yl]pyridine-3-carboxamide]
- Sel cat. K (cathepsin K): ++ (++ means a Ki(cathepsin K)/Ki(calpain) ratio of ≧30)
- Sel cat. S (cathepsin S): ++ (++ means a Ki(cathepsin S)/Ki(calpain) ratio of ≧100)
- Sel cat. B (cathepsin B): ++ (++ means a Ki(cathepsin B)/Ki(calpain) ratio of ≧30)
- Sel cat. L (cathepsin L): ++ (++ means a Ki(cathepsin L)/Ki(calpain) ratio of ≧50)

Compound: NC(=O)C(=O)C(Cc1ccc(F)cc1)NC(=O)c1cccnc1-n1ccc(-c2ccccc2OC(F)(F)F)n1 (centres unmarked) [Example 152, N-{3-Amino-1-[(4-fluorophenyl)methyl]-2,3-dioxopropyl}-2-(3-{2-[(trifluoromethyl)oxy]phenyl}-1H-pyrazol-1-yl)pyridine-3-carboxamide]
- Sel cat. K (cathepsin K): ++ (++ means a Ki(cathepsin K)/Ki(calpain) ratio of ≧30)
- Sel cat. S (cathepsin S): ++ (++ means a Ki(cathepsin S)/Ki(calpain) ratio of ≧100)
- Sel cat. B (cathepsin B): ++ (++ means a Ki(cathepsin B)/Ki(calpain) ratio of ≧30)
- Sel cat. L (cathepsin L): ++ (++ means a Ki(cathepsin L)/Ki(calpain) ratio of ≧50)

Compound: NC(=O)C(=O)C(Cc1ccccc1)NC(=O)c1cccnc1-n1ccc(-c2ccc(Cl)cc2Cl)n1 (centres unmarked) [Example 79, N-(3-Amino-1-benzyl-2,3-dioxopropyl)-2-[3-(2,4-dichlorophenyl)-1H-pyrazol-1-yl]nicotinamide]
- Sel cat. K (cathepsin K): ++ (++ means a Ki(cathepsin K)/Ki(calpain) ratio of ≧30)
- Sel cat. S (cathepsin S): ++ (++ means a Ki(cathepsin S)/Ki(calpain) ratio of ≧100)
- Sel cat. B (cathepsin B): ++ (++ means a Ki(cathepsin B)/Ki(calpain) ratio of ≧30)
- Sel cat. L (cathepsin L): ++ (++ means a Ki(cathepsin L)/Ki(calpain) ratio of ≧50)

Compound: NC(=O)C(=O)C(Cc1ccccc1)NC(=O)c1cccnc1-n1ccc(-c2cccc(C(F)(F)F)c2Cl)n1 (centres unmarked) [Example 155, N-[3-Amino-2,3-dioxo-1-(phenylmethyl)propyl]-2-{3-[2-chloro-3-(trifluoromethyl)phenyl]-1H-pyrazol-1-yl}pyridine-3-carboxamide]
- Sel cat. K (cathepsin K): ++ (++ means a Ki(cathepsin K)/Ki(calpain) ratio of ≧30)
- Sel cat. S (cathepsin S): ++ (++ means a Ki(cathepsin S)/Ki(calpain) ratio of ≧100)
- Sel cat. B (cathepsin B): ++ (++ means a Ki(cathepsin B)/Ki(calpain) ratio of ≧30)
- Sel cat. L (cathepsin L): ++ (++ means a Ki(cathepsin L)/Ki(calpain) ratio of ≧50)

Compound: Cc1ccccc1-c1ccn(-c2ncccc2C(=O)NC(Cc2ccccc2)C(=O)C(N)=O)n1 (centres unmarked) [Example 93, N-[3-Amino-2,3-dioxo-1-(phenylmethyl)propyl]-2-[3-(2-methylphenyl)-1H-pyrazol-1-yl]pyridine-3-carboxamide]
- Sel cat. K (cathepsin K): + (+ means 10≦Ki(cathepsin K)/Ki(calpain)<30)
- Sel cat. S (cathepsin S): ++ (++ means a Ki(cathepsin S)/Ki(calpain) ratio of ≧100)
- Sel cat. B (cathepsin B): ++ (++ means a Ki(cathepsin B)/Ki(calpain) ratio of ≧30)
- Sel cat. L (cathepsin L): ++ (++ means a Ki(cathepsin L)/Ki(calpain) ratio of ≧50)

Compound: COc1ccc(CC(NC(=O)c2cccnc2-n2ccc(-c3ccc(F)cc3)n2)C(=O)C(N)=O)cc1 (centres unmarked) [Example 81, N-[3-Amino-1-(4-methoxybenzyl)-2,3-dioxopropyl]-2-[3-(4-fluorophenyl)-1H-pyrazol-1-yl]nicotinamide]
- Sel cat. K (cathepsin K): + (+ means 10≦Ki(cathepsin K)/Ki(calpain)<30)
- Sel cat. S (cathepsin S): ++ (++ means a Ki(cathepsin S)/Ki(calpain) ratio of ≧100)
- Sel cat. B (cathepsin B): + (+ means 10≦Ki(cathepsin B)/Ki(calpain)<30)
- Sel cat. L (cathepsin L): ++ (++ means a Ki(cathepsin L)/Ki(calpain) ratio of ≧50)

Compound: COc1ccc(CC(NC(=O)c2cccnc2-n2ccc(-c3ccc(Cl)cc3Cl)n2)C(=O)C(N)=O)cc1 (centres unmarked) [Example 98, N-(3-Amino-1-{[4-(methyloxy)phenyl]methyl}-2,3-dioxopropyl)-2-[3-(2,4-dichlorophenyl)-1H-pyrazol-1-yl]pyridine-3-carboxamide]
- Sel cat. K (cathepsin K): ++ (++ means a Ki(cathepsin K)/Ki(calpain) ratio of ≧30)
- Sel cat. S (cathepsin S): ++ (++ means a Ki(cathepsin S)/Ki(calpain) ratio of ≧100)
- Sel cat. B (cathepsin B): ++ (++ means a Ki(cathepsin B)/Ki(calpain) ratio of ≧30)
- Sel cat. L (cathepsin L): ++ (++ means a Ki(cathepsin L)/Ki(calpain) ratio of ≧50)

Compound: COc1ccccc1-c1ccn(-c2ncccc2C(=O)NC(Cc2ccccc2)C(=O)C(N)=O)n1 (centres unmarked) [Example 90, N-[3-Amino-2,3-dioxo-1-(phenylmethyl)propyl]-2-{3-[2-(methyloxy)phenyl]-1H-pyrazol-1-yl}pyridine-3-carboxamide]
- Sel cat. K (cathepsin K): + (+ means 10≦Ki(cathepsin K)/Ki(calpain)<30)
- Sel cat. S (cathepsin S): ++ (++ means a Ki(cathepsin S)/Ki(calpain) ratio of ≧100)
- Sel cat. B (cathepsin B): ++ (++ means a Ki(cathepsin B)/Ki(calpain) ratio of ≧30)
- Sel cat. L (cathepsin L): ++ (++ means a Ki(cathepsin L)/Ki(calpain) ratio of ≧50)

Compound: COc1ccc(CC(NC(=O)c2cccnc2-n2ccc(-c3cccc(Cl)c3Cl)n2)C(=O)C(N)=O)cc1 (centres unmarked) [Example 153, N-(3-Amino-1-{[4-(methyloxy)phenyl]methyl}-2,3-dioxopropyl)-2-[3-(2,3-dichlorophenyl)-1H-pyrazol-1-yl]pyridine-3-carboxamide]
- Sel cat. K (cathepsin K): ++ (++ means a Ki(cathepsin K)/Ki(calpain) ratio of ≧30)
- Sel cat. S (cathepsin S): ++ (++ means a Ki(cathepsin S)/Ki(calpain) ratio of ≧100)
- Sel cat. B (cathepsin B): ++ (++ means a Ki(cathepsin B)/Ki(calpain) ratio of ≧30)
- Sel cat. L (cathepsin L): ++ (++ means a Ki(cathepsin L)/Ki(calpain) ratio of ≧50)

Compound: NC(=O)C(=O)C(Cc1ccccc1)NC(=O)c1cccnc1-n1ccc(-c2ccccc2OC(F)(F)F)n1 (centres unmarked) [Example 124, N-[3-Amino-2,3-dioxo-1-(phenylmethyl)propyl]-2-(3-{2-[(trifluoromethyl)oxy]phenyl}-1H-pyrazol-1-yl)pyridine-3-carboxamide]
- Sel cat. K (cathepsin K): ++ (++ means a Ki(cathepsin K)/Ki(calpain) ratio of ≧30)
- Sel cat. S (cathepsin S): ++ (++ means a Ki(cathepsin S)/Ki(calpain) ratio of ≧100)
- Sel cat. B (cathepsin B): ++ (++ means a Ki(cathepsin B)/Ki(calpain) ratio of ≧30)
- Sel cat. L (cathepsin L): ++ (++ means a Ki(cathepsin L)/Ki(calpain) ratio of ≧50)

Compound: NC(=O)C(=O)C(Cc1ccccc1)NC(=O)c1cccnc1-n1ccc(-c2ccccc2C(F)(F)F)n1 (centres unmarked) [Example 72, N-(3-Amino-1-benzyl-2,3-dioxopropyl)-2-{3-[2-(trifluoromethyl)phenyl]-1H-pyrazol-1-yl}nicotinamide]
- Sel cat. K (cathepsin K): + (+ means 10≦Ki(cathepsin K)/Ki(calpain)<30)
- Sel cat. S (cathepsin S): ++ (++ means a Ki(cathepsin S)/Ki(calpain) ratio of ≧100)
- Sel cat. B (cathepsin B): + (+ means 10≦Ki(cathepsin B)/Ki(calpain)<30)
- Sel cat. L (cathepsin L): + (+ means 30≦Ki(cathepsin L)/Ki(calpain)<50)

Compound: NC(=O)C(=O)C(Cc1ccccc1)NC(=O)c1cccnc1-n1cc2c(n1)-c1cccc(Cl)c1OC2 (centres unmarked) [Example 175, N-[3-Amino-2,3-dioxo-1-(phenylmethyl)propyl]-2-(6-chlorochromeno[4,3-c]pyrazol-2(4H)-yl)pyridine-3-carboxamide]
- Sel cat. K (cathepsin K): ++ (++ means a Ki(cathepsin K)/Ki(calpain) ratio of ≧30)
- Sel cat. S (cathepsin S): ++ (++ means a Ki(cathepsin S)/Ki(calpain) ratio of ≧100)
- Sel cat. B (cathepsin B): ++ (++ means a Ki(cathepsin B)/Ki(calpain) ratio of ≧30)
- Sel cat. L (cathepsin L): ++ (++ means a Ki(cathepsin L)/Ki(calpain) ratio of ≧50)

Compound: NC(=O)C(=O)C(Cc1ccccc1)NC(=O)c1cccnc1-n1ccc(-c2ccc(N3CCOCC3)cc2Cl)n1 (centres unmarked) [Example 99, N-[3-Amino-2,3-dioxo-1-(phenylmethyl)propyl]-2-[3-(2-chloro-4-morpholin-4-ylphenyl)-1H-pyrazol-1-yl]pyridine-3-carboxamide]
- Sel cat. K (cathepsin K): ++ (++ means a Ki(cathepsin K)/Ki(calpain) ratio of ≧30)
- Sel cat. S (cathepsin S): ++ (++ means a Ki(cathepsin S)/Ki(calpain) ratio of ≧100)
- Sel cat. B (cathepsin B): ++ (++ means a Ki(cathepsin B)/Ki(calpain) ratio of ≧30)
- Sel cat. L (cathepsin L): ++ (++ means a Ki(cathepsin L)/Ki(calpain) ratio of ≧50)

Compound: NC(=O)C(=O)C(Cc1ccccc1)NC(=O)c1cccnc1-n1ccc(-c2cccc(N3CCOCC3)c2)n1 (centres unmarked) [Example 58, N-(3-Amino-1-benzyl-2,3-dioxopropyl)-2-[3-(3-morpholin-4-ylphenyl)-1H-pyrazol-1-yl]nicotinamide]
- Sel cat. K (cathepsin K): + (+ means 10≦Ki(cathepsin K)/Ki(calpain)<30)
- Sel cat. S (cathepsin S): ++ (++ means a Ki(cathepsin S)/Ki(calpain) ratio of ≧100)
- Sel cat. B (cathepsin B): + (+ means 10≦Ki(cathepsin B)/Ki(calpain)<30)
- Sel cat. L (cathepsin L): ++ (++ means a Ki(cathepsin L)/Ki(calpain) ratio of ≧50)
